In ChEMBL document CHEMBL1135164, “New ketosteroids from the red alga Hypnea musciformis” (Bioorg Med Chem Lett, 2002):

Target: T1, Chymotrypsin-like elastase family member 2A (Sus scrofa) (UniProt P08419)
T1 sequence (whole entry): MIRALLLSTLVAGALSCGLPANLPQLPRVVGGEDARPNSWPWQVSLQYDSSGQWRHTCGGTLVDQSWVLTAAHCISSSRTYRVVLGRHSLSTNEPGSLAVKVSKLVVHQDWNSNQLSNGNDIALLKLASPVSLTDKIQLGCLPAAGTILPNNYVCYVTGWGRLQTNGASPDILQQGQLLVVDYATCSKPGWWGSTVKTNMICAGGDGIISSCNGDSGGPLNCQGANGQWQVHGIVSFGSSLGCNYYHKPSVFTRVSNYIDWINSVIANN
Assay: Effective dose for inhibition of the porcine Pancreatic elastase

ED50: 0.1 mM
SMILES: CC(C)C/C=C/[C@](C)(O)[C@H]1CC[C@H]2[C@@H]3CC(=O)[C@H]4CC(=O)CC[C@]4(C)[C@H]3CC[C@@]21C
